# Measured values from patent publication US20230293519A1, “INTEGRIN INHIBITORS AND USES THEREOF IN COMBINATION WITH OTHER AGENTS” (Pliant Therapeutics, Inc., priority 2021, published 2023).
# Target: recombinant human integrin αvβ6 (Homo sapiens (Human), UniProt P06756+P18564)
# Assay: Solid phase integrin αvβ6 binding assay
# Details: IC50 presented in four ranges; read-out: αvβ6 Inhibition IC50 (nM) - range
# Protocol: (§1) Microplates were coated with recombinant human integrin αvβ6 (2 µg/mL) in PBS (100 µL/well 25° C., overnight). The coating solution was removed, washed with wash buffer (0.05% Tween 20; 0.5 mM MnCl2; in 1x TBS). The plate was blocked with 200 µL/well of Block Buffer (1% BSA; 5% sucrose; 0.5 mM MnCl2; in 1x TBS) at 37° C. for 2 h. Dilutions of testing compounds and recombinant TGFβ1 LAP (0.67 µg/mL) in binding buffer (0.05% BSA; 2.5% sucrose; 0.5 mM MnCl2; in 1x TBS) were added. The plate was incubated for 2 hours at 25° C., washed, and incubated for 1 hour with Biotin-Anti-hLAP. Bound antibody was detected by peroxidase-conjugated streptavidin. The IC50 values for testing compounds were calculated by a four-parameter logistic regression.
# The compounds tested were compound samples prepared according to procedures described in the Synthetic Examples section, with the stereochemical purity as indicated in the Examples.
# as §1, with “A third series of exemplary compounds was selected for testing in the solid phase integrin αvβ6 binding assay. The compounds tested were compound samples prepared according to procedures described in the Synthetic Examples section, with the stereochemical purity as indicated in the Examples. As in Example B1, microplates” for “Microplates”
# Chain of recombinant human integrin αvβ6 (P06756 31-889): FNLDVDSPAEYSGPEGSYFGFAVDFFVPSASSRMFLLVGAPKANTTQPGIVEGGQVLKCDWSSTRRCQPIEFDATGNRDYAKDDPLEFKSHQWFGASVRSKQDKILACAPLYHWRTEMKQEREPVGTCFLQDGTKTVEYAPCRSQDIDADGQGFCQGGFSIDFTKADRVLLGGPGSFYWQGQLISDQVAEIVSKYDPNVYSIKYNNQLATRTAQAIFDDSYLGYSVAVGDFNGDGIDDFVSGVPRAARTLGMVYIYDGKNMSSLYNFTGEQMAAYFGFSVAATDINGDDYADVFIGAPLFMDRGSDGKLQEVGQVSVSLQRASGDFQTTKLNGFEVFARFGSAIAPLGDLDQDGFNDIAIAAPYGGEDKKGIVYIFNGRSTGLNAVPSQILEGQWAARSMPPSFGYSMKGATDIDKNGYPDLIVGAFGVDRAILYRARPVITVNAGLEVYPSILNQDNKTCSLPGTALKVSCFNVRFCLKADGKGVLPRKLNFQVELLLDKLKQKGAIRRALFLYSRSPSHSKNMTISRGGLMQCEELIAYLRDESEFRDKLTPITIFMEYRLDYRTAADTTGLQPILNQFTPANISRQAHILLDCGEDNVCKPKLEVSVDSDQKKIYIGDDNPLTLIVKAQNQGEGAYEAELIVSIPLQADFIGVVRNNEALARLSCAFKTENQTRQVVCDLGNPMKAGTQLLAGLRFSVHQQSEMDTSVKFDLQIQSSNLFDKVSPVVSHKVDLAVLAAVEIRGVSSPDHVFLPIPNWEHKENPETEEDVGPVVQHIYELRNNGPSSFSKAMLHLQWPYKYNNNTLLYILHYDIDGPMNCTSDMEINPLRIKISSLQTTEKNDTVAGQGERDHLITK
# Chain of recombinant human integrin αvβ6 (P06756 890-992 partner): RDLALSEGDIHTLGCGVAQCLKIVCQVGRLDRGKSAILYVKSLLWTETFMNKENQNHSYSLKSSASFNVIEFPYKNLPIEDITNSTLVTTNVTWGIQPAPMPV
# Chain of recombinant human integrin αvβ6 (P18564 22-707): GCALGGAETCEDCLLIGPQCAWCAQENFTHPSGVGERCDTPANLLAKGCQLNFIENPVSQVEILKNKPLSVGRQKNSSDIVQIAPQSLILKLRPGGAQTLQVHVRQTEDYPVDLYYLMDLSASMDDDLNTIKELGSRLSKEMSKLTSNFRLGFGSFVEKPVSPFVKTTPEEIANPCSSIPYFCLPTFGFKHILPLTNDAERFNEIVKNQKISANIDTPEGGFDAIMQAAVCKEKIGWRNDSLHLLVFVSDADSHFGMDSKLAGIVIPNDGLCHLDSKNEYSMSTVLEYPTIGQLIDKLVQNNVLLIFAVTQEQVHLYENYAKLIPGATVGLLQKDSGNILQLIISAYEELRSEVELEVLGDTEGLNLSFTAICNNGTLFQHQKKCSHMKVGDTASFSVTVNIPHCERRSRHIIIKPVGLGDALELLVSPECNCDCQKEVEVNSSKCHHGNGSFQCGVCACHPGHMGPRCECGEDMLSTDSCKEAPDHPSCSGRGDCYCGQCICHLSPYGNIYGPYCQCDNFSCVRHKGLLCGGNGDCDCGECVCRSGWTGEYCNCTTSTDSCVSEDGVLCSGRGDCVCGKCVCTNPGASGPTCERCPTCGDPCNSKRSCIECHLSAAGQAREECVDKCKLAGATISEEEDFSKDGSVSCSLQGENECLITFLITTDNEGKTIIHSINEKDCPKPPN
row,Structure (SMILES),IC50
1,CO[C@H](C)CN(CCCCc1ccc2c(n1)NCCC2)CCC(Nc1ncnc2ccccc12)C(=O)O (stereo partly drawn) [compound 62],< 50 nM
2,CC(=O)NCCN(CCCCc1ccc2c(n1)NCCC2)CC[C@H](Nc1ncnc2ccccc12)C(=O)O [compound 63],< 50 nM
3,CN(C)C(=O)CN(CCCCc1ccc2c(n1)NCCC2)CC[C@H](Nc1ncnc2ccccc12)C(=O)O [compound 64],< 50 nM
4,CO[C@H](C)CN(CCCCc1ccc2c(n1)NCCC2)CC[C@H](Nc1nc(C)nc2cc(F)ccc12)C(=O)O [compound 65],< 50 nM
5,CO[C@H](C)CN(CCCCc1ccc2c(n1)NCCC2)CC[C@H](Nc1nc(C)nc2ccccc12)C(=O)O [compound 66],< 50 nM
6,COCCN(CCCCc1ccc2c(n1)NCCC2)CC[C@H](Nc1nccnc1C#N)C(=O)O [compound 67],< 50 nM
7,CO[C@H](C)CN(CCCCc1ccc2c(n1)NCCC2)CC[C@H](Nc1ncnc2[nH]ncc12)C(=O)O [compound 71],< 50 nM
8,CO[C@H](C)CN(CCCCc1ccc2c(n1)NCCC2)CC[C@H](Nc1ccnc(-c2ccccc2)n1)C(=O)O [compound 73],< 50 nM
9,CO[C@H](C)CN(CCCCc1ccc2c(n1)NCCC2)CC[C@H](Nc1ncnc2c1cnn2C)C(=O)O [compound 74],< 50 nM
10,O=C(O)[C@H](CCN(CCO)CCCCc1ccc2c(n1)NCCC2)Nc1ncnc2ccccc12 [compound 75],< 50 nM
11,CO[C@H](C)CN(CCCCc1ccc2c(n1)NCCC2)CC[C@H](Nc1nccnc1C#N)C(=O)O [compound 76],< 50 nM
12,CO[C@H](C)CN(CCCCc1ccc2c(n1)NCCC2)CC[C@H](Nc1cc(-n2cccn2)ncn1)C(=O)O [compound 77],< 50 nM
13,CO[C@H](C)CN(CCCCc1ccc2c(n1)NCCC2)CC[C@H](Nc1ncc(F)cn1)C(=O)O [compound 78],< 50 nM
14,CO[C@H](C)CN(CCCCc1ccc2c(n1)NCCC2)CC[C@H](Nc1ncnc2cn[nH]c12)C(=O)O [compound 79],< 50 nM
15,CO[C@H](C)CN(CCCCc1ccc2c(n1)NCCC2)CC[C@H](Nc1ncncc1-c1ccccc1)C(=O)O [compound 81],< 50 nM
16,Cn1ncc2c(N[C@@H](CCN(CCCCc3ccc4c(n3)NCCC4)CCOc3ccccc3)C(=O)O)ncnc21 [compound 82],< 50 nM
17,O=C(O)[C@H](CCN(CCCCc1ccc2c(n1)NCCC2)CCOc1ccccc1)Nc1ncc(Br)cn1 [compound 83],< 50 nM
18,CO[C@H](C)CN(CCCCc1ccc2c(n1)NCCC2)CC[C@H](Nc1ncc(C#N)cn1)C(=O)O [compound 84],250 to 1000 nM
19,CO[C@H](C)CN(CCCCc1ccc2c(n1)NCCC2)CC[C@H](Nc1ncc(C(F)(F)F)cn1)C(=O)O [compound 85],250 to 1000 nM
20,CO[C@H](C)CN(CCCCc1ccc2c(n1)NCCC2)CC[C@H](Nc1ncc(Br)cn1)C(=O)O [compound 86],50 to 250 nM

row,Structure (SMILES),IC50
1,CO[C@H](C)CN(CCCCc1ccc2c(n1)NCCC2)CC[C@H](Nc1ccnc(C(F)(F)F)n1)C(=O)O [compound 87],250 to 1000 nM
2,Cn1ncc2c(N[C@@H](CCN(CCCCc3ccc4c(n3)NCCC4)CC(F)F)C(=O)O)ncnc21 [compound 88],> 1000 nM
3,O=C(O)[C@H](CCN(CCCCc1ccc2c(n1)NCCC2)CCOc1ccccc1)Nc1ncc(C(F)(F)F)cn1 [compound 89],< 50 nM
4,O=C(O)[C@H](CCN(CCCCc1ccc2c(n1)NCCC2)CCOc1ccccc1)Nc1ncnc2[nH]ncc12 [compound 90],< 50 nM
5,O=C(O)[C@H](CCN(CCCCc1ccc2c(n1)NCCC2)CCOc1ccccc1)Nc1cc(-n2cccn2)ncn1 [compound 91],< 50 nM
6,O=C(O)[C@H](CCN(CCCCc1ccc2c(n1)NCCC2)CCOc1ccccc1)Nc1ccnc(C(F)(F)F)n1 [compound 92],< 50 nM
7,O=C(O)[C@H](CCN(CCCCc1ccc2c(n1)NCCC2)CCOc1ccccc1)Nc1cc(-c2ccccc2)ncn1 [compound 93],< 50 nM
8,O=C(O)[C@H](CCN(CCCCc1ccc2c(n1)NCCC2)CCOc1ccccc1)Nc1nc(-c2cccnc2)nc2ccccc12 [compound 94],< 50 nM
9,O=C(O)[C@H](CCN(CCCCc1ccc2c(n1)NCCC2)CC(F)F)Nc1ncc(C(F)(F)F)cn1 [compound 95],> 1000 nM
10,O=C(O)[C@H](CCN(CCCCc1ccc2c(n1)NCCC2)CC(F)F)Nc1ncc(Br)cn1 [compound 96],> 1000 nM
11,O=C(O)[C@H](CCN(CCCCc1ccc2c(n1)NCCC2)CC(F)F)Nc1ccnc(C(F)(F)F)n1 [compound 97],> 1000 nM
12,O=C(O)[C@H](CCN(CCCCc1ccc2c(n1)NCCC2)CC(F)F)Nc1cc(-n2cccn2)ncn1 [compound 98],> 1000 nM
13,O=C(O)[C@H](CCN(CCCCc1ccc2c(n1)NCCC2)CC(F)F)Nc1nc(-c2cccnc2)nc2ccccc12 [compound 99],250 to 1000 nM
14,CO[C@H](C)CN(CCCCc1ccc2c(n1)NCCC2)CC[C@H](Nc1nc(-c2cccnc2)nc2ccccc12)C(=O)O [compound 100],< 50 nM
15,Cn1ncc2c(N[C@@H](CCN(CCCCc3ccc4c(n3)NCCC4)CCS(C)(=O)=O)C(=O)O)ncnc21 [compound 101],50 to 250 nM
16,CS(=O)(=O)CCN(CCCCc1ccc2c(n1)NCCC2)CC[C@H](Nc1ncc(C(F)(F)F)cn1)C(=O)O [compound 102],> 1000 nM
17,CS(=O)(=O)CCN(CCCCc1ccc2c(n1)NCCC2)CC[C@H](Nc1ncc(Br)cn1)C(=O)O [compound 103],> 1000 nM
18,CS(=O)(=O)CCN(CCCCc1ccc2c(n1)NCCC2)CC[C@H](Nc1ccnc(C(F)(F)F)n1)C(=O)O [compound 104],> 1000 nM
19,COC[C@@H](F)CN(CCCCc1ccc2c(n1)NCCC2)CC[C@H](Nc1ncnc2c1cnn2C)C(=O)O [compound 105],< 50 nM
20,CS(=O)(=O)CCN(CCCCc1ccc2c(n1)NCCC2)CC[C@H](Nc1nc(-c2cccnc2)nc2ccccc12)C(=O)O [compound 107],250 to 1000 nM

row,Structure (SMILES),IC50
1,COC[C@@H](F)CN(CCCCc1ccc2c(n1)NCCC2)CC[C@H](Nc1cc(-n2cccn2)ncn1)C(=O)O [compound 108],> 1000 nM
2,COC[C@@H](F)CN(CCCCc1ccc2c(n1)NCCC2)CC[C@H](Nc1nc(-c2cccnc2)nc2ccccc12)C(=O)O [compound 109],< 50 nM
3,COC[C@@H](F)CN(CCCCc1ccc2c(n1)NCCC2)CC[C@H](Nc1ncncc1-c1ccccc1)C(=O)O [compound 110],< 50 nM
4,N#Cc1cnc(N[C@@H](CCN(CCCCc2ccc3c(n2)NCCC3)CCOc2ccccc2)C(=O)O)nc1 [compound 111],< 50 nM
5,O=C(O)[C@H](CCN(CCCCc1ccc2c(n1)NCCC2)CC(F)F)Nc1ncnc2[nH]ncc12 [compound 112],250 to 1000 nM
6,O=C(O)[C@H](CCN(CCCCc1ccc2c(n1)NCCC2)C1CC1)Nc1ncc(C(F)(F)F)cn1 [compound 114],< 50 nM
7,O=C(O)[C@H](CCN(CCCCc1ccc2c(n1)NCCC2)C1CC1)Nc1ccnc(C(F)(F)F)n1 [compound 115],50 to 250 nM
8,O=C(O)[C@H](CCN(CCCCc1ccc2c(n1)NCCC2)C1CC1)Nc1ncnc2[nH]ncc12 [compound 116],50 to 250 nM
9,O=C(O)[C@H](CCN(CCCCc1ccc2c(n1)NCCC2)CCOc1ccccc1)Nc1ncc(C2CC2)cn1 [compound 117],< 50 nM
10,N#Cc1cnc(N[C@@H](CCN(CCCCc2ccc3c(n2)NCCC3)CC(F)F)C(=O)O)nc1 [compound 118],> 1000 nM
11,O=C(O)[C@H](CCN(CCCCc1ccc2c(n1)NCCC2)CC(F)F)Nc1ncncc1-c1ccccc1 [compound 119],> 1000 nM
12,O=C(O)[C@H](CCN(CCCCc1ccc2c(n1)NCCC2)CC(F)F)Nc1ccncn1 [compound 120],> 1000 nM
13,O=C(O)[C@H](CCN(CCCCc1ccc2c(n1)NCCC2)CC(F)F)Nc1ncc(F)cn1 [compound 121],> 1000 nM
14,Cc1cc(N[C@@H](CCN(CCCCc2ccc3c(n2)NCCC3)CC(F)F)C(=O)O)nc(-c2ccncc2)n1 [compound 122],250 to 1000 nM
15,Cn1ncc2c(N[C@@H](CCN(CCCCc3ccc4c(n3)NCCC4)CCOc3ccc(F)cc3)C(=O)O)ncnc21 [compound 123],< 50 nM
16,CO[C@H](C)CN(CCCCc1ccc2c(n1)NCCC2)CC[C@H](Nc1ncc(C2CC2)cn1)C(=O)O [compound 124],< 50 nM
17,CS(=O)(=O)CCN(CCCCc1ccc2c(n1)NCCC2)CC[C@H](Nc1ncnc2[nH]ncc12)C(=O)O [compound 125],50 to 250 nM
18,CS(=O)(=O)CCN(CCCCc1ccc2c(n1)NCCC2)CC[C@H](Nc1cc(-n2cccn2)ncn1)C(=O)O [compound 126],> 1000 nM
19,CO[C@H](C)CN(CCCCc1ccc2c(n1)NCCC2)CC[C@H](Nc1ccncn1)C(=O)O [compound 127],250 to 1000 nM
20,CO[C@H](C)CN(CCCCc1ccc2c(n1)NCCC2)CC[C@H](Nc1cc(-c2ccccc2)ncn1)C(=O)O [compound 128],> 1000 nM
